Assay results published in ChEMBL document CHEMBL1136799, “Design and synthesis of pyrrolidine-5,5'-trans-lactams (5-oxo-hexahydropyrrolo[3,2-b]pyrroles) as novel mechanism-based inhibitors of human cytomegalovirus protease. 4. Antiviral activity and plasma stability” (J Med Chem, 2003).

Tests used:
[1] = target: T1, Capsid scaffolding protein (Human cytomegalovirus (strain AD169) (HHV-5) (Human herpesvirus 5), UniProt P16753); experiment: Potency against human cytomegalovirus protease in HCMV pNA assay; design: species or system Human herpesvirus 5 strain AD169
T1 sequence (P16753 whole entry): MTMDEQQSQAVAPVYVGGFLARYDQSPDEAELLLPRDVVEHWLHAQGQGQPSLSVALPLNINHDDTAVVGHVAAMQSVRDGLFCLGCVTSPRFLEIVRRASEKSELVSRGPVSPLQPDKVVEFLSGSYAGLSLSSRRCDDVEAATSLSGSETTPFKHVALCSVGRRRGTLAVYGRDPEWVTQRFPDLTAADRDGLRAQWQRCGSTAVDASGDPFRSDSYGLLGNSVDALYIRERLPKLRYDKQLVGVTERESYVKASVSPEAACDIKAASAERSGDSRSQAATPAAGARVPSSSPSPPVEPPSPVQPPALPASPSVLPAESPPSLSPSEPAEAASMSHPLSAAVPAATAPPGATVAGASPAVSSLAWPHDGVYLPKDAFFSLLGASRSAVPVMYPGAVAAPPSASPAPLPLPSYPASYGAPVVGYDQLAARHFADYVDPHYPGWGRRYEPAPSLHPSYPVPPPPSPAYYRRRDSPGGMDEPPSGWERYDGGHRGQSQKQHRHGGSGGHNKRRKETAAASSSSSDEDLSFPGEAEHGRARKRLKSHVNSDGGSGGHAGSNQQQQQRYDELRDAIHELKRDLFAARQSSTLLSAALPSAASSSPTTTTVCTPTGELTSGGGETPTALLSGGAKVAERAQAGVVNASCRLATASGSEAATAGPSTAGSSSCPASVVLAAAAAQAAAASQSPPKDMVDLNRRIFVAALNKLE

[2] = target: T1, Capsid scaffolding protein; experiment: Inhibition of human cytomegalovirus protease in HCMV pNA assay.; design: species or system Human herpesvirus 5 strain AD169
[3] = Compound was tested for its stability in human plasma; format: ADME, organism-based
Human betaherpesvirus 5 = experiment: Concentration required to inhibit human cytomegalovirus HCMV-AD169 in antiviralplaque reduction assay; format: functional, organism-based
Vero = experiment: Growth inhibition of cytomegalovirus in Vero cells; format: functional, Human betaherpesvirus 5

Structure (SMILES) | Ki [1] | IC50 [2] | half-life [3] | IC50 (Human betaherpesvirus 5) | CCID50 (Vero)
CC(C)Oc1ccc(NC(=O)N2CCC[C@H]2C(=O)N2CC[C@H]3[C@H]2[C@H](C)C(=O)N3C(=O)C2CC2)cc1 | 18 nM | 180 nM | – | – | –
CCCOc1ccc(-c2ccc(S(=O)(=O)N3CCC[C@H]3C(=O)N3CC[C@H]4[C@H]3[C@H](C)C(=O)N4C(=O)C3CC3)cc2)cc1 | 33 nM | – | – | – | –
C[C@@H]1C(=O)N(C(=O)C2CC2)[C@H]2CCN(C(=O)[C@@H]3CCCN3C(=O)c3ccc(-c4ccc(Cl)cc4)cc3)[C@H]12 | – | 1400 nM | – | – | –
CCCOc1ccc(C(=O)N2CCC[C@H]2C(=O)N2CC[C@H]3[C@H]2[C@H](C)C(=O)N3C(=O)C2CC2)cc1 | 79 nM | 540 nM | – | – | –
CCCOc1ccc(-c2ccc(C(=O)N3CCC[C@H]3C(=O)N3CC[C@H]4[C@H]3[C@H](C)C(=O)N4C(=O)C3CC3)cc2)cc1 | 79 nM | – | – | – | –
C[C@@H]1C(=O)N(C(=O)C2CC2)[C@H]2CCN(C(=O)[C@@H]3CCCN3C(=O)Nc3ccc(C(F)(F)F)cc3)[C@H]12 | 15 nM | 230 nM | – | – | –
C[C@@H]1C(=O)N(C(=O)C2CC2)[C@H]2CCN(C(=O)[C@@H]3CCCN3C(=O)Nc3cccc(Cl)c3)[C@H]12 | – | 650 nM | – | – | –
CC(C)Oc1ccc(S(=O)(=O)N2CCC[C@H]2C(=O)N2CC[C@H]3[C@H]2[C@H](C)C(=O)N3C(=O)C2CC2)cc1 | 39 nM | 400 nM | – | – | –
CC(C)c1ccc(NC(=O)N2CCC[C@H]2C(=O)N2CC[C@H]3[C@H]2[C@H](C)C(=O)N3c2ccc([N+](=O)[O-])cc2)cc1 | – | 8700 nM | > 24 h | > 70000 nM | 69 µM
CC(C)c1ccc(S(=O)(=O)N2CCC[C@H]2C(=O)N2CC[C@H]3[C@H]2[C@H](C)C(=O)N3C(=O)C2CC2)cc1 | 99 nM | 460 nM | – | – | –
CC(C)c1ccc(NC(=O)N2CCC[C@H]2C(=O)N2CC[C@H]3[C@H]2[C@H](C)C(=O)N3c2nc3cc(S(=O)(=O)C(F)F)ccc3s2)cc1 | – | 210 nM | – | 2200 nM | >500 µM
C[C@@H]1C(=O)N(C(=O)C2CC2)[C@H]2CCN(C(=O)[C@@H]3CCCN3C(=O)c3ccc(Cl)cc3)[C@H]12 | – | 1400 nM | – | – | –
COc1ccc2nc(N3C(=O)[C@@H](C)[C@@H]4[C@@H]3CCN4C(=O)[C@@H]3CCCN3C(=O)Nc3ccc(C(C)C)cc3)sc2c1 | 43 nM | 220 nM | – | 3200 nM | >500 µM
CCCOc1ccc(-c2ccc(NC(=O)N3CCC[C@H]3C(=O)N3CC[C@H]4[C@H]3[C@H](C)C(=O)N4C(=O)C3CC3)cc2)cc1 | 9 nM | – | – | – | –
C[C@@H]1C(=O)N(C(=O)C2CC2)[C@H]2CCN(C(=O)[C@@H]3CCCN3C(=O)Nc3cccc4ccccc34)[C@H]12 | – | 650 nM | – | – | –
C[C@@H]1C(=O)N(C(=O)C2CC2)[C@H]2CCN(C(=O)[C@@H]3CCCN3S(=O)(=O)c3cccc4cc(N(C)C)ccc34)[C@H]12 | – | 1100 nM | – | – | –
CC(C)c1ccc(NC(=O)N2CCC[C@H]2C(=O)N2CC[C@H]3[C@H]2[C@H](C)C(=O)N3c2nc3c(Cl)cccc3s2)cc1 | – | 290 nM | – | 17100 nM | >500 µM
CC(C)c1ccc(NC(=O)N2CCC[C@H]2C(=O)N2CC[C@H]3[C@H]2[C@H](C)C(=O)N3C(=O)C2[C@@H](C)[C@H]2C)cc1 (stereo not given in full) | – | 1800 nM | 1.5 h | > 30000 nM | 375 µM
Cc1c(C(=O)N2CCC[C@H]2C(=O)N2CC[C@H]3[C@H]2[C@H](C)C(=O)N3C(=O)C2CC2)sc2ccc(Cl)cc12 | 2 nM | 190 nM | – | – | –
CC(C)c1ccc(NC(=O)N2CCC[C@H]2C(=O)N2CC[C@H]3[C@H]2[C@H](C)C(=O)N3c2nc3cc(Cl)ccc3s2)cc1 | – | 460 nM | – | 49000 nM | 266 µM

Structure (SMILES) | Ki [1] | IC50 [2] | half-life [3] | IC50 (Human betaherpesvirus 5) | CCID50 (Vero)
C[C@@H]1C(=O)N(C(=O)C2CC2)[C@H]2CCN(C(=O)[C@@H]3CCCN3S(=O)(=O)c3ccccc3)[C@H]12 | – | 1800 nM | – | – | –
CC(C)c1ccc(C(=O)N2CCC[C@H]2C(=O)N2CC[C@H]3[C@H]2[C@H](C)C(=O)N3C(=O)C2CC2)cc1 | – | 390 nM | – | – | –
C[C@@H]1C(=O)N(C(=O)C2CC2)[C@H]2CCN(C(=O)[C@@H]3CCCN3S(=O)(=O)c3ccc(Cl)cc3)[C@H]12 | – | 840 nM | – | – | –
CC(C)c1ccccc1NC(=O)N1CCC[C@H]1C(=O)N1CC[C@H]2[C@H]1[C@H](C)C(=O)N2C(=O)C1CC1 | – | 470 nM | – | – | –
C[C@@H]1C(=O)N(C(=O)C2CC2)[C@H]2CCN(C(=O)[C@@H]3CCCN3C(=O)c3ccc(-c4ccccc4)cc3)[C@H]12 | 21 nM | 300 nM | – | – | –
C[C@@H]1C(=O)N(C(=O)C2CC2)[C@H]2CCN(C(=O)[C@@H]3CCCN3C(=O)Nc3ccc(Cl)cc3)[C@H]12 | 38 nM | 260 nM | – | – | –
C[C@@H]1C(=O)N(C(=O)C2CC2)[C@H]2CCN(C(=O)[C@@H]3CCCN3S(=O)(=O)c3ccc4ccccc4c3)[C@H]12 | 40 nM | < 190 nM | – | – | –
C[C@@H]1C(=O)N(C(=O)C2CC2)[C@H]2CCN(C(=O)[C@@H]3CCCN3S(=O)(=O)c3ccc(-c4ccc(Cl)cc4)cc3)[C@H]12 | – | 840 nM | – | – | –
CCCOc1ccc(S(=O)(=O)N2CCC[C@H]2C(=O)N2CC[C@H]3[C@H]2[C@H](C)C(=O)N3C(=O)C2CC2)cc1 | 33 nM | 230 nM | – | – | –
COc1ccc(C)c2sc(N3C(=O)[C@@H](C)[C@@H]4[C@@H]3CCN4C(=O)[C@@H]3CCCN3C(=O)Nc3ccc(C(C)C)cc3)nc12 | – | 1100 nM | > 24 h | 17400 nM | 126 µM
COc1ccc2sc(N3C(=O)[C@@H](C)[C@@H]4[C@@H]3CCN4C(=O)[C@@H]3CCCN3C(=O)Nc3ccc(C(C)C)cc3)nc2c1 | – | 230 nM | – | 2400 nM | >500 µM
C[C@@H]1C(=O)N(C(=O)C2CC2)[C@H]2CCN(C(=O)[C@@H]3CCCN3C(=O)Nc3ccccc3)[C@H]12 | – | 1400 nM | – | – | –
C[C@@H]1C(=O)N(C(=O)C2CC2)[C@H]2CCN(C(=O)[C@@H]3CCCN3C(=O)Nc3cccc(C(F)(F)F)c3)[C@H]12 | – | 590 nM | – | – | –
C[C@@H]1C(=O)N(C(=O)C2CC2)[C@H]2CCN(C(=O)[C@@H]3CCCN3S(=O)(=O)Cc3ccccc3)[C@H]12 | – | 2100 nM | – | – | –
C[C@@H]1C(=O)N(C(=O)C2CC2)[C@H]2CCN(C(=O)[C@@H]3CCCN3C(=O)c3cccc4ccccc34)[C@H]12 | – | 890 nM | – | – | –
COc1cccc2sc(N3C(=O)[C@@H](C)[C@@H]4[C@@H]3CCN4C(=O)[C@@H]3CCCN3C(=O)Nc3ccc(C(C)C)cc3)nc12 | – | 240 nM | – | 5200 nM | 89 µM
C[C@@H]1C(=O)N(C(=O)C2CC2)[C@H]2CCN(C(=O)[C@@H]3CCCN3C(=O)Nc3ccc(-c4ccc(Cl)cc4)cc3)[C@H]12 | – | 260 nM | – | – | –
C[C@@H]1C(=O)N(C(=O)C2CC2)[C@H]2CCN(C(=O)[C@@H]3CCCN3S(=O)(=O)c3cccc4ccccc34)[C@H]12 | 60 nM | 370 nM | – | – | –
CCCOc1ccc(NC(=O)N2CCC[C@H]2C(=O)N2CC[C@H]3[C@H]2[C@H](C)C(=O)N3C(=O)C2CC2)cc1 | 9 nM | 210 nM | – | – | –
Nc1nc2c(ncn2COC(CO)CO)c(=O)[nH]1 [GANCICLOVIR] | – | – | – | 720 nM | >500 µM
